Laboratory results reported in patent US9827235B2, “Pharmaceutical compositions comprising antibacterial agents” (WOCKHARDT LIMITED, priority 2013, dated 2017).
Where two headings read alike, the source gives them in different places.

Legend:
Type in all cases: cell-based
E. coli M 44 = experiment: MIC on Muller Hinton Agar (CLSI); details: Escherichia coli
Method: (§1) The antibacterial activity of combinations according to the invention was investigated against various bacterial strains. In a typical study, minimum inhibitory concentrations (MIC) were determined using Muller Hinton Agar (MHA) (BD, USA) according to Clinical and Laboratory Standards Institute (CLSI) recommendations, (Clinical and Laboratory Standards Institute (CLSI), Performance Standards for Antimicrobial Susceptibility Testing, 20th Informational Supplement, M 100-S20, Volume 30, No. 1, 2010). In short, the inocula were adjusted to deliver about 10^4 colony forming units (CFU) per spot with a multipoint inoculator (Applied Quality Services, UK). The plates were pored with doubling concentration range of the test combinations according to invention containing MHA. The plates were inoculated and were incubated at 35° C. for 18 hours.

E. coli S 16 = experiment: MIC on Muller Hinton Agar (CLSI); details: Escherichia coli
Method: as §1

E. coli S 30 = experiment: MIC on Muller Hinton Agar (CLSI); details: Escherichia coli
Method: as §1

E. coli S 330 = experiment: MIC on Muller Hinton Agar (CLSI); details: Escherichia coli
Method: as §1

E. coli S 33 = experiment: MIC on Muller Hinton Agar (CLSI); details: Escherichia coli
Method: as §1

E. coli S 35 = experiment: MIC on Muller Hinton Agar (CLSI); details: Escherichia coli
Method: as §1

K. pneumoniae B 77 = experiment: MIC on Muller Hinton Agar (CLSI); details: Klebsiella pneumoniae
Method: as §1

K. pneumoniae B 88 = experiment: MIC on Muller Hinton Agar (CLSI); details: Klebsiella pneumoniae
Method: as §1

K. pneumoniae M 3 = experiment: MIC on Muller Hinton Agar (CLSI); details: Klebsiella pneumoniae
Method: as §1

K. pneumoniae NCTC 13439 = experiment: MIC on Muller Hinton Agar (CLSI); details: Klebsiella pneumoniae
Method: as §1

K. pneumoniae S 48 = experiment: MIC on Muller Hinton Agar (CLSI); details: Klebsiella pneumoniae
Method: as §1

K. pneumoniae S 50 = experiment: MIC on Muller Hinton Agar (CLSI); details: Klebsiella pneumoniae
Method: as §1

[1] = test system: P. aeruginosa H 113720186; experiment: MIC on Muller Hinton Agar (CLSI); details: Pseudomonas aeruginosa
Method: as §1

P. aeruginosa Q-111 = experiment: MIC on Muller Hinton Agar (CLSI); details: Pseudomonas aeruginosa
Method: as §1

P. aeruginosa S 504 = experiment: MIC on Muller Hinton Agar (CLSI); details: Pseudomonas aeruginosa
Method: as §1

P. aeruginosa S 508 = experiment: MIC on Muller Hinton Agar (CLSI); details: Pseudomonas aeruginosa
Method: as §1

P. aeruginosa S 513 = experiment: MIC on Muller Hinton Agar (CLSI); details: Pseudomonas aeruginosa
Method: as §1

[2] = test system: clinical isolate of K. pneumoniae B 88 producing metallo beta-lactamases [SHV, TEM, NDM-1]; experiment: Time kill study; details: for Bacterial count: each agent at 8 mcg/ml, initial count 6.18 log CFU/ml
Method: (§2) Typically, freshly grown cultures were diluted to the required cell density (initial starting inoculum) in Cation adjusted Muller Hinton broth medium BD, USA). The antibacterial agents at the required concentrations were added into the culture-containing medium either alone or in combination. The samples were incubated under shaking condition (120 rpm) at 37° C. Enumeration of viable bacterial count was undertaken, every 2 hour, by diluting in normal saline and plating on to the Tryptic Soya Agar plates (BD, USA). The plates were incubated for 24 hours to arrive at the viable bacterial count. […] The decrease of 1 Log CFU/ml, after administration of combination of present invention, in comparison to initial bacterial count corresponds to 90% killing of bacteria. Similarly, 2 Log CFU/ml reductions corresponds to 99% killing of bacteria and 3 Log CFU/ml reductions is equal to 99.9% killing of bacteria.

[3] = test system: clinical isolate of K. pneumoniae S 48 producing metallo beta-lactamases [SHV, TEM, NDM-1]; experiment: Time kill study; details: for Bacterial count: each agent at 8 mcg/ml, initial count 6.84 log CFU/ml
Method: as §2

[4] = test system: highly resistant strains of E. coli, K. pneumonia and P. aeruginosa; experiment: MIC, summary over the strain panel
Method: as §1

[5] = used alone at 8 mcg/ml, at the end of 6 hours

`CO/N=C(\C(=O)N[C@@H]1C(=O)N2C(C(=O)[O-])=C(C[N+]3(C)CCCC3)CS[C@H]12)c1csc(N)n1` [Cefepime, cefepime] showed an MIC (E. coli M 44; M44, agent alone, enzymes TEM, NDM-1, read-out: MIC) greater than 32 µg/mL, an MIC (E. coli M 44; M44, with compound of Formula (I) at 8 mcg/ml, read-out: MIC (mcg/ml) of cefepime in presence of a compound of Formula (I) (8 mcg/ml)) of no more than 0.015 µg/mL and an MIC (E. coli S 16; S16, agent alone, enzymes CMY type, TEM, DHA, read-out: MIC) greater than 32 µg/mL. It also gave an MIC (E. coli S 16; S16, with compound of Formula (I) at 8 mcg/ml, read-out: MIC (mcg/ml) of cefepime in presence of a compound of Formula (I) (8 mcg/ml)) of no more than 0.015 µg/mL, an MIC (E. coli S 30; S30, agent alone, enzymes CMY type, TEM, NDM-1, read-out: MIC) greater than 32 µg/mL and an MIC (E. coli S 30; S30, with compound of Formula (I) at 8 mcg/ml, read-out: MIC (mcg/ml) of cefepime in presence of a compound of Formula (I) (8 mcg/ml)) of no more than 0.015 µg/mL. The MIC (E. coli S 330; S330, agent alone, enzymes NDM, read-out: MIC) was greater than 32 µg/mL, the MIC (E. coli S 330; S330, with compound of Formula (I) at 8 mcg/ml, read-out: MIC (mcg/ml) of cefepime in presence of a compound of Formula (I) (8 mcg/ml)) was no more than 0.015 µg/mL and the MIC (E. coli S 33; S33, agent alone, enzymes TEM, NDM-1, read-out: MIC) was greater than 32 µg/mL. The MIC (E. coli S 33; S33, with compound of Formula (I) at 8 mcg/ml, read-out: MIC (mcg/ml) of cefepime in presence of a compound of Formula (I) (8 mcg/ml)) was no more than 0.015 µg/mL, the MIC (E. coli S 35; S35, agent alone, enzymes TEM, NDM-1, read-out: MIC) was greater than 32 µg/mL and the MIC (E. coli S 35; S35, with compound of Formula (I) at 8 mcg/ml, read-out: MIC (mcg/ml) of cefepime in presence of a compound of Formula (I) (8 mcg/ml)) was no more than 0.015 µg/mL. For the same molecule, the MIC (K. pneumoniae B 77; B77, agent alone, enzymes SHV, TEM, NDM-1, read-out: MIC) was greater than 32 µg/mL, the MIC (K. pneumoniae B 77; B77, with compound of Formula (I) at 8 mcg/ml, read-out: MIC (mcg/ml) of cefepime in presence of a compound of Formula (I) (8 mcg/ml)) was no more than 0.25 µg/mL and the MIC (K. pneumoniae B 88; B88, agent alone, enzymes SHV, TEM, NDM-1, read-out: MIC) was greater than 32 µg/mL. The MIC (K. pneumoniae B 88; B88, with compound of Formula (I) at 8 mcg/ml, read-out: MIC (mcg/ml) of cefepime in presence of a compound of Formula (I) (8 mcg/ml)) was no more than 0.015 µg/mL, the MIC (K. pneumoniae M 3; M3, agent alone, enzymes SHV, CTXM, TEM, NDM-1, read-out: MIC) was greater than 32 µg/mL and the MIC (K. pneumoniae M 3; M3, with compound of Formula (I) at 8 mcg/ml, read-out: MIC (mcg/ml) of cefepime in presence of a compound of Formula (I) (8 mcg/ml)) was no more than 0.015 µg/mL. For the same molecule, the MIC (K. pneumoniae NCTC 13439; NCTC13439, agent alone, enzymes VIM-1, read-out: MIC) was greater than 32 µg/mL, the MIC (K. pneumoniae NCTC 13439; NCTC13439, with compound of Formula (I) at 8 mcg/ml, read-out: MIC (mcg/ml) of cefepime in presence of a compound of Formula (I) (8 mcg/ml)) was 1 µg/mL and the MIC (K. pneumoniae S 48; S48, agent alone, enzymes SHV, TEM, NDM-1, read-out: MIC) was greater than 32 µg/mL. For the same molecule, the MIC (K. pneumoniae S 48; S48, with compound of Formula (I) at 8 mcg/ml, read-out: MIC (mcg/ml) of cefepime in presence of a compound of Formula (I) (8 mcg/ml)) was no more than 0.015 µg/mL, the MIC (K. pneumoniae S 50; S50, agent alone, enzymes SHV, TEM, NDM-1, read-out: MIC) was greater than 32 µg/mL and the MIC (K. pneumoniae S 50; S50, with compound of Formula (I) at 8 mcg/ml, read-out: MIC (mcg/ml) of cefepime in presence of a compound of Formula (I) (8 mcg/ml)) was no more than 0.015 µg/mL. For the same molecule, the MIC ([1]; H113720186, agent alone, enzymes IMP, read-out: MIC) was greater than 32 µg/mL, the MIC ([1]; H113720186, with compound of Formula (I) at 8 mcg/ml, read-out: MIC (mcg/ml) of cefepime in presence of a compound of Formula (I) (8 mcg/ml)) was no more than 0.5 µg/mL and the MIC (P. aeruginosa Q-111; Q111, agent alone, enzymes OXA-4, OXA-11, read-out: MIC) was greater than 32 µg/mL. For the same molecule, the MIC (P. aeruginosa Q-111; Q111, with compound of Formula (I) at 8 mcg/ml, read-out: MIC (mcg/ml) of cefepime in presence of a compound of Formula (I) (8 mcg/ml)) was no more than 0.06 µg/mL, the MIC (P. aeruginosa S 504; S504, agent alone, enzymes VIM-6, read-out: MIC) was greater than 32 µg/mL and the MIC (P. aeruginosa S 504; S504, with compound of Formula (I) at 8 mcg/ml, read-out: MIC (mcg/ml) of cefepime in presence of a compound of Formula (I) (8 mcg/ml)) was no more than 0.06 µg/mL. The MIC (P. aeruginosa S 508; S508, agent alone, enzymes VIM-11, read-out: MIC) was greater than 32 µg/mL, the MIC (P. aeruginosa S 508; S508, with compound of Formula (I) at 8 mcg/ml, read-out: MIC (mcg/ml) of cefepime in presence of a compound of Formula (I) (8 mcg/ml)) was no more than 0.06 µg/mL and the MIC (P. aeruginosa S 513; S513, agent alone, enzymes VIM-6, read-out: MIC) was greater than 32 µg/mL. The MIC (P. aeruginosa S 513; S513, with compound of Formula (I) at 8 mcg/ml, read-out: MIC (mcg/ml) of cefepime in presence of a compound of Formula (I) (8 mcg/ml)) was no more than 0.06 µg/mL, the Bacterial count ([2]; 2 hours) was 6.9 Log CFU/ml and the Bacterial count ([2]; 4 hours) was 8.23 Log CFU/ml. For the same molecule, the Bacterial count ([2]; 6 hours) was 8.23 Log CFU/ml, the “Change in bacterial count (in words)” value [2, 5] was “no decrease in bacterial count was observed” and the Bacterial count ([3]; 2 hours) was 6.17 Log CFU/ml. The Bacterial count ([3]; 4 hours) was 7.11 Log CFU/ml, the Bacterial count ([3]; 6 hours) was 8.69 Log CFU/ml and the “Change in bacterial count (in words)” value [3, 5] was “no decrease in bacterial count was observed”. The “MICs (range over the strains)” value ([4]; agent alone, resistant strains of E. coli, K. pneumonia and P. aeruginosa) was 16 to 64 µg/mL and the “MIC values of cefepime in presence of the compound of Formula (I) (range over the strains)” value ([4]; with compound of Formula (I) at 8 mcg/ml) was 0.015 to 1 µg/mL.
